{"source": "patent US20230201157A1", "about": "“COMPOSITIONS OF CANNABINOIDS AND METHODS OF USING SAME” (ASANA BIO GROUP LTD., priority 2020, published 2023)", "key": {"RAW 264.7 cells [1]": {"test_system": "RAW 264.7 cells", "assay": "MTT viability assay", "type": "cell-based, mouse", "details": "for cell viability: 50 µM of single cannabinoid (FIG. 1)", "experimental": "(§1) Cell lines were cultured according to standard mammalian tissue culture protocols and sterile technique. Adherent human epithelial endometriosis 12Z and mouse monocytes RAW 264.7 cell lines were cultured in high glucose Dulbecco’s Modified Eagle Medium (DMEM) supplemented with 1% sodium pyruvate. Human monocytes THP-1 cell line were cultured in RPMI medium 1640. All media was supplemented with 10% fetal bovine serum, streptomycin […], penicillin (100 U/ml) and Nystatin (12.5 U/ml). Cells were incubated in 5% CO2 at 37° C. All tissue culture cells were maintained in 75 cm^2 cell culture treated flask (Eppendorf) and all the media and supplements were obtained from Biological Industries. Treatment were performed by plating cells in a 96 micro well delta surface plates (Eppendorf) in a starting confluence of 1 × 10^4 cells/well.\nThe viability of the cells following treatment was determined using a commercially available MTT assay kit (Abcam, ab 146345) and performed according to manufacturer’s instructions. Briefly, cells were seeded in a 96-well plate at a density of 1 × 10^4 cells/well (n=4) in 100 µl cell specific media. After overnight plating, cells were exposed to varying concentrations of cannabis samples in 100 µl of specific media. Then, plates were incubated in a humidified atmosphere containing 5% CO2 in air at 37° C. for 24 hours. According to the MTT standard protocol, after 24 h treatment, the media was removed, and all cells were incubated with serum-free media containing 0.5 mg/ml MTT for 4 hours at the incubator. The MTT purple crystals formed by the viable cells were dissolved using isopropanol containing 0.04 mol/L HCl. The quantification was determined by measuring the optical density at 570 nm in a spectrophotometer reader (Spark, Tecan). Results were presented as proportional viability (%) by comparing between treated and untreated groups. Cytotoxic potential of an extract was determined according to the following criteria: Non-cytotoxic -Viability is ≥ 70% of vehicle control; Cytotoxic - Viability is reduced to less than 70% of vehicle control."}, "RAW 264.7 cells [2]": {"test_system": "RAW 264.7 cells", "assay": "Nitric oxide detection assay (Griess) in LPS-stimulated cells", "type": "cell-based, mouse", "details": "for nitric oxide production: 50 µM of single cannabinoid (FIG. 1); for nitric oxide production while minimally affecting cell viability: lower dose, 25 µM, compared with effect at 50 µM (FIG. 1)", "experimental": "as §1\nRAW 264.7 cells were seeded in a 96-well plate at a density of 1 × 10^4 cells/well (n=4) in 100 µl cell specific media (DMEM high glucose supplemented with 10% FBS, 1% PSN and 1% Sodium pyruvate). After 24 hours, cells were treated with varying concentrations of cannabis samples using specific media containing 5% FBS. After 1 hour, treated and untreated cells, were stimulated by Lipopolysaccharides (LPS) at a final concentration of 1 µg/ml. Cells supernatants were harvest after 24 h for nitric oxide radical (NO•) assay by addition of 50 µl of the supernatant to an equal volume of Griess reagent (1% sulfanilamide, 0.1% naphthalene diamine and 2% H3PO4). After 10 min of incubation, the resultant color was measured at 540 nm. Results were presented as proportional (%) by comparing between treated and untreated groups. Anti-inflammatory potential of an extract in preventing Nitric oxide production was determined by the ratio between nitric oxide and cell viability values: Ratio < 0.5 = High effect; Ratio between 0.5-0.7 = Moderate effect; Ratio […] = Low effect; and Ratio > 1 = No effect."}}}
{"smiles": "O=c1cc(-c2ccc(O)cc2)oc2cc(O)cc(O)c12", "note": "[Apigenin, apigenin]", "values": [{"measurement": "cell viability (exception to 'no substantial effect on cell viability')", "setting": "RAW 264.7 cells [1]; mouse, 24 h, 50 µM", "result": "excluding 50 µM of Apigenin"}]}
{"smiles": "CCCCCc1cc(O)c2c(c1)OC(C)(CCC=C(C)C)C=C2", "note": "(stereo not drawn) [CBC, cannabichromene]", "values": [{"measurement": "cell viability", "setting": "RAW 264.7 cells [1]", "result": "minimally affecting cell viability or not affecting cell viability at all"}, {"measurement": "nitric oxide production", "setting": "RAW 264.7 cells [2]", "result": "reduced nitric oxide production"}]}
{"smiles": "CCCCCc1cc2c(c(O)c1C(=O)O)C=CC(C)(CCC=C(C)C)O2", "note": "(stereo not drawn) [CBCA, cannabichromenic acid]", "values": [{"measurement": "cell viability", "setting": "RAW 264.7 cells [1]", "result": "minimally affecting cell viability or not affecting cell viability at all"}, {"measurement": "nitric oxide production", "setting": "RAW 264.7 cells [2]", "result": "reduced nitric oxide production"}, {"measurement": "nitric oxide production while minimally affecting cell viability", "setting": "RAW 264.7 cells [2]", "result": "comparable effect"}]}
{"smiles": "CCCCCc1cc(O)c(C/C=C(\\C)CCC=C(C)C)c(O)c1", "note": "[CBG, cannabigerol]", "values": [{"measurement": "nitric oxide production", "setting": "RAW 264.7 cells [2]", "result": "reduced nitric oxide production"}]}
{"smiles": "CCCCCc1cc(O)c2c(c1)OC(C)(C)c1ccc(C)cc1-2", "note": "[CBN, cannabinol]", "values": [{"measurement": "cell viability", "setting": "RAW 264.7 cells [1]", "result": "minimally affecting cell viability or not affecting cell viability at all"}, {"measurement": "nitric oxide production", "setting": "RAW 264.7 cells [2]", "result": "reduced nitric oxide production"}]}
{"smiles": "CCCCCc1cc2c(c(O)c1C(=O)O)-c1cc(C)ccc1C(C)(C)O2", "note": "[CBNA, cannabinolic acid]", "values": [{"measurement": "cell viability", "setting": "RAW 264.7 cells [1]", "result": "minimally affecting cell viability or not affecting cell viability at all"}, {"measurement": "nitric oxide production", "setting": "RAW 264.7 cells [2]", "result": "reduced nitric oxide production"}, {"measurement": "nitric oxide production while minimally affecting cell viability", "setting": "RAW 264.7 cells [2]", "result": "comparable effect"}]}
{"smiles": "CCCCCc1cc2c(c(O)c1C(=O)O)[C@@H]1C=C(C)CC[C@H]1C(C)(C)O2", "note": "[THCA, tetrahydrocannabinolic acid]", "values": [{"measurement": "cell viability", "setting": "RAW 264.7 cells [1]", "result": "minimally affecting cell viability or not affecting cell viability at all"}, {"measurement": "nitric oxide production", "setting": "RAW 264.7 cells [2]", "result": "reduced nitric oxide production"}]}
{"smiles": "CCCc1cc(O)c2c(c1)OC(C)(C)[C@@H]1CCC(C)=C[C@@H]21", "note": "[THCV, tetrahydrocannabivarin]", "values": [{"measurement": "cell viability", "setting": "RAW 264.7 cells [1]", "result": "minimally affecting cell viability or not affecting cell viability at all"}, {"measurement": "nitric oxide production", "setting": "RAW 264.7 cells [2]", "result": "reduced nitric oxide production"}]}
{"smiles": "CCCc1cc2c(c(O)c1C(=O)O)[C@@H]1C=C(C)CC[C@H]1C(C)(C)O2", "note": "[THCVA, tetrahydrocannabivarinic acid]", "values": [{"measurement": "cell viability", "setting": "RAW 264.7 cells [1]", "result": "minimally affecting cell viability or not affecting cell viability at all"}, {"measurement": "nitric oxide production", "setting": "RAW 264.7 cells [2]", "result": "reduced nitric oxide production"}]}
